Experimental data: article PMC10458458, “Characterization of Anticancer Effects of the Analogs of DJ4, a Novel Selective Inhibitor of ROCK and MRCK Kinases” (Pharmaceuticals, 2023)

How the values were obtained:
A375M = experiment: MTT cell growth assay, 48 h; assay type: cell-based; conditions: Homo sapiens, 2000 cells/well, ±SE, read-out: IC50 from MTT assays
Protocol: (§1) However, as the concentration increased from 2.5 µM onwards, the effect was reversed. Similarly, DJ-Morpholine decreased the cell growth by ~30% at 0.6215 µM, while the effect remained saturated as the concentration increased. This trend was also observed in A549 lung cancer and A375M melanoma cells.
(§2) Figure 7 DJ4 analogs reduce cell growth in melanoma, breast, and lung cancer cells. MTT assay was performed to evaluate the effect of DJ4 analogs on cell growth after 48 h of treatment. IC50 values were calculated with nonlinear least squares regression curve fit by GraphPad prism. […] The error bars indicate SD from triplicates of the experiment.
(§3) The cytotoxic effect of DJ4 was studied in H1299, H226, A549, H522, H23, and H460 non-small cell lung cancer cells. The cells were seeded into 96-well plates with confluence ([…]). The cells were further treated with DMSO or DJ4 for 72 h. To study the effects of analogs, A549, A375M, and MDA-MB-231 cells were plated with low density (2000 cells/well) in a 96-well plate and grown overnight at 37 °C (with 5% CO2). Cells were treated with the analogs at the concentration of 0–10 µM for 48 h. At the end of the treatment period, cells were incubated with a tetrazolium dye MTT (3-(4,5-dimethylthiazol-2-yl)-2,5-diphenyltetrazolium bromide) reagent (Sigma) at 37 °C for 3 h to develop formazan crystals. The media was siphoned off and crystals were dissolved in DMSO and mixed gently on rocker for 5 min. Absorbance was read at 570 nm and 630 nm (background) wavelength. IC50 values were calculated from non-linear regression curve fit by using GraphPad Prism 5.0 software.

A549 = experiment: MTT cell growth assay, 48 h; assay type: cell-based; conditions: Homo sapiens; A549, 48 h, 2000 cells/well; ±SE; read-out: IC50 from MTT assays
Protocol: as §1, §2, §3

[1] = test system: MDA-MB-231 breast cancer cells; experiment: Caspase 3/7 assay (Muse); assay type: cell-based, human; conditions: MDA-MB-231, 2.5 µM, 48 h (DMSO 6.2)
Protocol: Figure 8 DJ4 analogs induce cell cycle arrest and apoptotic cell death in MDA-MB-231 breast cancer cells. (A) DJ4 analogs induce cell cycle arrest in MDA-MB-231 breast cancer cells. To study the cell cycle arrest by DJ4 analogs, serum-starved cell cycle-synchronized MDA-MB-231 cells were treated with 2.5 µM concentration of each compound for 24 h and stained with propidium iodide. Treatment with all the analogs, except DJ-Morpholine, induced significant arrest of cells in G2/M phase of cell cycle. (B) Apoptotic cell death by DJ4 analogs was evaluated by measuring caspase 3/7 activation in breast cancer cells. Cells were treated with 2.5 µM concentration of each compound for 48 h and incubated with fluorescent dye. All the compounds except DJ-Morpholine induced significant apoptotic cell death. TEXT PRINTED IN THE PICTURE: (A) DMSO: G1 : 48.40%; S : 44%; G2/M: 7.60% | (A) DJ4: G1 : 27.41%; S : 38.58%; G2/M: 34.01% | (A) DJ-Allyl: G1 : 15.94%; S : 55.51%; G2/M: 28.54% | (A) DJE4: G1 : 19.14%; S : 58.48%; G2/M: 22.37% | (A) DJ110: G1 : 19.16%; S : 38.39%; G2/M: 42.51% | (A) DJ-Morpholine: G1 : 43.16%; S : 51.10%; G2/M: 5.74% | (B) DMSO: Dead 3.10 %; Apoptotic/Dead 4.40 %; 6.2; 1.75 % Apoptotic | (B) DJ4: Dead 5.45 %; Apoptotic/Dead 36.80 %; 52.9; 41.65 % Live; 16.10 % Apoptotic | (B) DJ-Allyl: Dead 3.05 %; Apoptotic/Dead 9.90 %; 18.1; 78.90 % Live; 8.15 % Apoptotic | (B) DJE4: Dead 1.85 %; Apoptotic/Dead 8.15 %; 13.4; 84.75 % Live; 5.25 % Apoptotic | (B) DJ110: Dead 9.05 %; Apoptotic/Dead 56.60 %; 64.4; 26.60 % Live; 7.75 % Apoptotic | (B) DJ-Morpholine: Dead 1.90 %; Apoptotic/Dead 5.00 %; 8.0; 90.10 % Live; 3.00 % Apoptotic DOUBTS OF THE COPYIST ABOUT THIS PICTURE: Panel A: the print is very small and blurred, so 3, 5, 6, 8 and 9 cannot be told apart with certainty in any of its values / A, DMSO: G1 48.40% or 46.40%; S 44% (a decimal part may be hidden); G2/M 7.60% or 7.80% / A, DJ4: G1 27.41%; S 38.58% or 38.98%; G2/M 34.01% uncertain / A, DJ-Allyl: G1 15.94%; S 55.51% or 53.51%; G2/M 28.54% or 26.54% uncertain / A, DJE4: G1 19.14%; S 58.48% or 58.46%; G2/M 22.37% uncertain / A, DJ110: G1 19.16% or 19.18%; S 38.39% or 38.33%; G2/M 42.51% uncertain / A, DJ-Morpholine: G1 43.16%; S 51.10%; G2/M 5.74% uncertain / B, DMSO, Live: the value is hidden by data points (only '.75 %' can be read, perhaps 90.75 or 89.75), so it is left out / B, DJ4, Live: partly hidden by data points, 41.65 is the best reading / B, DJ-Allyl, Live: partly hidden by data points, 78.90 or 76.90 / B, DJE4, Live: partly hidden by data points, 84.75 or 64.75 / B, DJ110, Live: partly hidden by data points, 26.60 or 28.60 / B, DJ-Morpholine, Live: partly hidden by data points, 90.10 or 20.10 / B: the large bold numbers (6.2, 52.9, 18.1, 13.4, 64.4, 8.0) are printed with no measure or unit
To determine whether the active analogs induce apoptotic cell death similar to the DJ4 parent compound, we treated MDA-MB-231 breast cancer cells with 2.5 µM concentration of all the analogs for 48 h (Figure 8). The cells were then analyzed for activation of caspase 3/7 (a marker for apoptotic cell death) and propidium iodide (a marker of cell membrane integrity) using the Muse^TM (EMD Millipore) two color bench-top flow cytometer. […]
To examine whether the selected compounds induce apoptosis, we treated MDA-MB-231 breast cancer cells with 5 µM of each compound. […] The data were quantified by using FlowJo software (version 10).

SMILES | IC50 (A375M) [µM] | IC50 (A549) [µM] | apoptosis (Q2 + Q3), caspase 3/7 [1] [%]
O=C1N/C(=N\CCc2ccccc2)S/C1=C/c1c[nH]c2ncccc12 [DJ4] | 1.1 ± 0.15 | 5.4 ± 1.19 | 52.9
O=C1N/C(=N\Cc2ccccc2)S/C1=C/c1c[nH]c2ncccc12 [DJ110] | 0.49 ± 0.03 | 0.88 ± 0.16 | 64.4
C=CC/N=C1\NC(=O)/C(=C\c2c[nH]c3ncccc23)S1 [DJ-Allyl] | 4.7 ± 0.52 | 5 ± 2.2 | 18.1
O=C1N/C(=N\CCN2CCOCC2)S/C1=C/c1c[nH]c2ncccc12 [DJ-Morpholine] | > 10 | > 10 | 8
CC/N=C1\NC(=O)/C(=C\c2c[nH]c3ncccc23)S1 [DJE4] | 5.1 ± 0.32 | 6.1 ± 1.69 | 13.4
